The experiment has as its system Staphylococcus aureus (S. aureus—ATCC #6538). As to the kind of experiment: Minimum Biocidal Concentration (MBC) in suspension. Type of experiment: cell-based. The procedure: B) Antibacterial Efficacy (Minimum Biocidal Concentration in Suspension) The antimicrobial efficacy of the antimicrobial agent in the composition is determined by measuring its Minimum Biocidal Concentration (MBC). The MBC is defined as the lowest absolute concentration of the particular antimicrobial active which provides complete kill (zero bacterial growth). The MBC of the compositions herein is determined against the bacterium, Staphylococcus aureus (S. aureus—ATCC #6538), a gram positive bacterium, These microorganisms are representative of natural contaminants in many consumer and industrial applications. The bacteria inoculum is prepared by transferring several colonies from a Tryptone Soy Agar (TSA) plate to a saline solution (0.85% NaCl) comprising 5% of horse serum as additional soil load when indicated, the bacteria concentration in this saline solution is determined by measuring the % Transmittance at 425 nm and adjusted by either adding more bacteria or more saline solution until the % Transmittance at 425 nm is between 23-25% which corresponds to a bacteria concentration of 10^8 CFU/ml. The antimicrobial agent was added to the composition at a level of 1000 ppm, 500 ppm, or 200 ppm, or 100 ppm or 50 ppm. 200 μL of the antimicrobial hard surface cleaning composition was dosed into one well of row A of a 96 well microtiter plate. Each subsequent well (rows B to G) were dosed with 100 μL of the same hard surface cleaning composition, without the addition of the antimicrobial agent. 100 μL of the antimicrobial hard surface cleaning composition was transferred from row A to row B and mixed. 100 μL of the composition was then transferred from row B to row C and mixed, and the process repeated to row G. As such, the concentration of the antimicrobial agent underwent two-fold dilution in adjacent wells, while the concentration of the other actives in the hard surface cleaning composition remained constant across all the wells in the same column. 10 μL of the 10^8 CFU/ml bacteria suspension in saline was added to wells A to F of the microtiter plate with row G kept as a nil bacteria control. The final volume in each well was 110 μL, except for row G which comprised 100 μL of the hard surface cleaning composition and no bacteria suspension. Bacterial inoculation to each column was staggered by 30 seconds to allow for equal incubation times in all wells so that the contact time between the bacteria and the antimicrobial active for all samples was 6 mins. After this contact time, 10 μL of each test solution was transferred to 90 μL of neutraliser solution (Modified Letheen Broth+1.5% Polysorbate 80, supplied by BioMérieux) to stop the antimicrobial action of the antimicrobial active matching the stagger of the inoculation. 2 μL of this solution was plated onto a TSA plate matching the stagger of the inoculation so that all samples are exposed to the neutralizer for the same period of time. The plate is incubated at 32.5° C. for 48 h for S. aureus. MBC concentration is taken as the lowest concentration of the antimicrobial active at which no visible colony growth is observed on the TSA plate. The antibacterial efficacy of the bispyridinium alkane octenidine hydrochloride was compared to that of the quaternary ammonium compound n-alkyl dimethyl benzyl ammonium chloride/n-alkyl dimethyl ethylbenzyl ammonium chloride (BTC®2125-Stepan) in acidic compositions comprising 1% of the indicated surfactant. Compositions were acidified using either an inorganic acid (hydrochloric acid) or an organic acid (citric acid). The minimal biocidal concentration (MBC) in suspension of each antibacterial active against a gram positive bacterium (Staphylococcus aureus) was measured in the presence of 5% horse serum to mimic stressed soiled conditions. Contact time was 6 minutes except for the composition with 1% of dodecyldimethyl amine oxide that was 30 seconds.

Structures can show the parent of a compound that is named as a salt. Some results are limits rather than exact numbers.

Consider `CCCCCCCCN=c1ccn(CCCCCCCCCCn2ccc(=NCCCCCCCC)cc2)cc1` [Octenidine, octenidine dihydrochloride], for which the MBC is 62.5 µg/mL (ATCC6538, 0.1 h, pH 3.83, acidic composition with 1% w/v D-glucopyranose oligomeric decyl octyl glucoside (Triton CG 50), citric acid, pH 3.83, 5% horse serum, contact time 6 minutes); 62.5 µg/mL (ATCC6538, 0.1 h, pH 3.83, acidic composition with 1% w/v cocoamidopropyl hydroxysultaine (Mackam SB 50), HCl, pH 3.83, 5% horse serum, contact time 6 minutes); 62.5 µg/mL (ATCC6538, 0.1 h, pH 3.86, acidic composition with 1% w/v C9-C11 alcohol EO8 (Neodol 91-8), HCl, pH 3.86, 5% horse serum, contact time 6 minutes); under 31 µg/mL (ATCC6538, 0.1 h, pH 3.86, acidic composition with 1% w/v C10 EO5 alcohol ethoxylate (Lutensol ON 50), HCl, pH 3.86, 5% horse serum, contact time 6 minutes); under 31 µg/mL (ATCC6538, 0.1 h, pH 3.87, acidic composition with 1% w/v 2-ethylhexyl PO5EO6 alkylalkoxylate (Ecosurf EH6), HCl, pH 3.87, 5% horse serum, contact time 6 minutes); 62.5 µg/mL (ATCC6538, pH 3.88, acidic composition with 1% w/v dodecyl dimethyl amine oxide (Empigem OB), citric acid, pH 3.88, 5% horse serum, contact time 30 seconds).

(Values after patent publication US20210029998A1, “ACIDIC ANTIMICROBIAL COMPOSITION” (The Procter & Gamble Company, priority 2019, published 2021).)
